According to ChEMBL document CHEMBL1221208, “ATP-competitive inhibitors of the mitotic kinesin KSP that function via an allosteric mechanism” (Nat Chem Biol, 2007):
Active and inactive are the calls of the source. The calls are words filed in the database; no cut-off is given here.

Tests used:
[1] = molecular target: Kinesin-like protein KIF11 (Homo sapiens, UniProt P52732, D130V); experiment: Inhibition of human KSP D130V mutant using varying ATP levels in presence of saturating levels of microtubule by Lineweaver-Burke plot
[2] = tested on: T1, Kinesin-like protein KIF11 (Homo sapiens), P52732 [D130V]; experiment: Uncompetitive inhibition of human KSP D130V mutant with respect to microtubule using varying ATP levels in presence of saturating levels of microtubule by Lineweaver-Burke plot
T1 sequence (whole entry): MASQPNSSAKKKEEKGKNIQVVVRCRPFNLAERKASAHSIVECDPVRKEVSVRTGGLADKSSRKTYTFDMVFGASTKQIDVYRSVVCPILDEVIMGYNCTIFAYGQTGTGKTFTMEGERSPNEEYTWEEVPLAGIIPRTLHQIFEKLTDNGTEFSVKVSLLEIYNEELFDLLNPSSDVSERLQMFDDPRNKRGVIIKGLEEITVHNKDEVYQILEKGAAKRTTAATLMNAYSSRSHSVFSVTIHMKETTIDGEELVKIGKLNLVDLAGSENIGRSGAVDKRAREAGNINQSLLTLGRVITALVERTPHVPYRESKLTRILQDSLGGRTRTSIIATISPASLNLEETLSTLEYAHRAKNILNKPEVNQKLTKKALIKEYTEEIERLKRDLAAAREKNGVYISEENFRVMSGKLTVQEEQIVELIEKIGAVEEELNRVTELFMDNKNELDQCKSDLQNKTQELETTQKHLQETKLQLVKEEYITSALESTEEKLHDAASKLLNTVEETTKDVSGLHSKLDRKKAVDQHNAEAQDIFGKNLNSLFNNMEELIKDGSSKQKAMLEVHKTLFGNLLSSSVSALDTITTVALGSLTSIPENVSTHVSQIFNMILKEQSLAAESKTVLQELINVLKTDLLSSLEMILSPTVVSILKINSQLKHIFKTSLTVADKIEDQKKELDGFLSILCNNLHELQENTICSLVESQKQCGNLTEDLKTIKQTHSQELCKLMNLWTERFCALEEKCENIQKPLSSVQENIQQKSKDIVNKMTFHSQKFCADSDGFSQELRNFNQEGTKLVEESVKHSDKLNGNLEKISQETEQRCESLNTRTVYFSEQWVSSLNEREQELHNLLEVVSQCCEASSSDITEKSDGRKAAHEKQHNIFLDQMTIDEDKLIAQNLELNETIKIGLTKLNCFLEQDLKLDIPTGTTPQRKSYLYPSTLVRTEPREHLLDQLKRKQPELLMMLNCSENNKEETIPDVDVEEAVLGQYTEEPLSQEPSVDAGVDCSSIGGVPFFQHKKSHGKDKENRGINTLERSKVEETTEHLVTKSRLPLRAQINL

[3] = molecular target: Kinesin-like protein KIF11 (Homo sapiens, UniProt P52732, I299F); experiment: Inhibition of human KSP I299F mutant in 6x IC95 biaryl selected human HCT116 cells using varying ATP levels in presence of saturating levels of microtubule by Lineweaver-Burke plot; assay type: cell-based, HCT-116
Chain of Kinesin-like protein KIF11 (Homo sapiens, UniProt P52732, I299F) (P52732 whole entry I299F): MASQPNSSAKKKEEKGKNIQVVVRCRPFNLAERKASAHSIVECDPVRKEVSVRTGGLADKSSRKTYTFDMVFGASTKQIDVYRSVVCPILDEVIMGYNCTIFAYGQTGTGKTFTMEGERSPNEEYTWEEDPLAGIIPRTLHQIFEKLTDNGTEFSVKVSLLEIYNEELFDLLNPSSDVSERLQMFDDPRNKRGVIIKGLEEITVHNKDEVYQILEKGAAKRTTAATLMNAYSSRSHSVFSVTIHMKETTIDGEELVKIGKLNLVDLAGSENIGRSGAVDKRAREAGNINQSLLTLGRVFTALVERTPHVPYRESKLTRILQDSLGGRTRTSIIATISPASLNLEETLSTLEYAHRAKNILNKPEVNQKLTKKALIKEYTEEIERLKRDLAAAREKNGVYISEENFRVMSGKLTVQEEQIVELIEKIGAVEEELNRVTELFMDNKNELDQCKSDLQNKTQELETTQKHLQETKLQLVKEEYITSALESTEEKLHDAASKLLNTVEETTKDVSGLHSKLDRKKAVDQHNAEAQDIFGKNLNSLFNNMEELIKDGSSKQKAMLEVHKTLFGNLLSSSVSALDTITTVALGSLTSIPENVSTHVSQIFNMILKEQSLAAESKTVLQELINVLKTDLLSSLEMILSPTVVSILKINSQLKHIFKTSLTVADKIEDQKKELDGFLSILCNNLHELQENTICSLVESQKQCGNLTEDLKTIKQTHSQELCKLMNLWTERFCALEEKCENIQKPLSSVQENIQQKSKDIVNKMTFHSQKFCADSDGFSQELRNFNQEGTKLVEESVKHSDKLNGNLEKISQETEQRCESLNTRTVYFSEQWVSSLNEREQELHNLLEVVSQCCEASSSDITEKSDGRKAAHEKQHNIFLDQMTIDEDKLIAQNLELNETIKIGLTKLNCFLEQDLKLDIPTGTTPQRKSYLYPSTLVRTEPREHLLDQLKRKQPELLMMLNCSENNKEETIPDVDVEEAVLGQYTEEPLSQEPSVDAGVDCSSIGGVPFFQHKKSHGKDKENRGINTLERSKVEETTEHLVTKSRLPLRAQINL

HCT-116 [4] = experiment: Antiproliferative activity against human HCT116 cells after 72 hrs by Cell titer Glo assay; assay type: functional, cell-based; conditions: HCT-116, 72 h
[5] = Inhibition of KSP A356 mutant in 3x IC95 biaryl selected human HCT116 cells using varying ATP levels in presence of saturating levels of microtubule by Lineweaver-Burke plot; assay type: cell-based; conditions: hct-116
HCT-116 [6] = experiment: Induction of monopolar spindle formation in human HCT116 cells; assay type: functional, cell-based
SK-OV-3 = experiment: Induction of monopolar spindle formation in human SKOV3 cells; assay type: functional, cell-based
HCT-116 [7] = experiment: Antiproliferative activity against IC50 biaryl selected drug-resistant against human HCT116 cells after 72 hrs by Cell titer Glo assay; assay type: functional, cell-based; conditions: HCT-116, 72 h
HCT-116 [8] = experiment: Antiproliferative activity against 3x IC95 biaryl selected human HCT116 cells expressing Kinesin-like protein KIF11 D130V mutant after 72 hrs by Cell titer Glo assay; assay type: functional, cell-based; conditions: HCT-116, 72 h
HCT-116 [9] = experiment: Antiproliferative activity against IC50 biaryl selected human HCT116 cells expressing Kinesin-like protein KIF11 D130V mutant after 72 hrs by Cell titer Glo assay; assay type: functional, cell-based; conditions: HCT-116, 72 h
HCT-116 [10] = experiment: Antiproliferative activity against IC95 biaryl selected human HCT116 cells expressing Kinesin-like protein KIF11 D130V mutant after 72 hrs by Cell titer Glo assay; assay type: functional, cell-based; conditions: HCT-116, 72 h
HCT-116 [11] = experiment: Antiproliferative activity against 3x IC95 biaryl selected drug-resistant against human HCT116 cells after 72 hrs by Cell titer Glo assay; assay type: functional, cell-based; conditions: HCT-116, 72 h
HCT-116 [12] = experiment: Antiproliferative activity against human HCT116 cells expressing Kinesin-like protein KIF11 D130V mutant after 72 hrs by Cell titer Glo assay; assay type: functional, cell-based; conditions: HCT-116, 72 h
HCT-116 [13] = experiment: Antiproliferative activity against IC95 biaryl selected drug-resistant against human HCT116 cells after 72 hrs by Cell titer Glo assay; assay type: functional, cell-based; conditions: HCT-116, 72 h

Row | Ki [1] | inhibition [2] | Ki [3] | IC50 (HCT-116 [4]) | IC50 (HCT-116 [7]) | IC50 (HCT-116 [8]) | IC50 (HCT-116 [9]) | IC50 (HCT-116 [10]) | IC50 (HCT-116 [11]) | IC50 (HCT-116 [12]) | IC50 (HCT-116 [13]) | Structure (SMILES) | Ki [5] | Activity (HCT-116 [6]) | Activity (SK-OV-3)
1 | 0.01 µM | Active | – | – | – | – | – | – | – | – | – | NC(=O)Nc1ccc(-c2ccc(C(F)(F)F)cc2)cc1F | – | – | –
2 | 0.0022 µM | Active | 0.066 µM | 0.036 µM | 0.036 µM | 0.0069 µM | 0.00083 µM | 0.0033 µM | 2.09 µM | 0.00045 µM | 0.162 µM | O=C1CCc2cc(-c3ccc(C(F)(F)F)cc3)ccc2N1 | 0.109 µM | Active | Active
